Experimental data reported in BindingDB's records for doi:10.1016/j.bmcl.2007.11.134 (Korea Institute of Science and Technology, 2008).

molecular target: not listed separately; assay: Inhibition of HIV1 reverse transcriptase K103N mutant by HeLa-MAGI assay

Structure (SMILES)	IC50 [µM]
Cc1cc(OCCCNC(N)=O)ccc1NC(=O)COc1ccc(Cl)cc1C(=O)c1cc(F)cc(C(F)(F)F)c1	0.004
Cc1ccccc1NC(=O)COc1ccc(Cl)cc1C(=O)c1cc(F)cc(F)c1	0.038
Cc1[nH]/c(=N/S(=O)(=O)c2cccc([N+](=O)[O-])c2)sc1C(C)(C)C	32.4
Cc1cc(S(N)(=O)=O)ccc1NC(=O)COc1ccc(Cl)cc1C(=O)c1cc(C#N)cc(C(F)(F)F)c1	0.0011
Cc1cc(Cl)cc(C(=O)c2cc(Cl)ccc2OCC(=O)Nc2ccc(S(N)(=O)=O)cc2C)c1	0.0036
Cc1cc(S(N)(=O)=O)ncc1NC(=O)COc1ccc(Cl)cc1C(=O)c1cc(Cl)cc(C#N)c1	0.005
Cc1cc(C#N)cc(C(=O)c2cc(Cl)ccc2OCC(=O)Nc2cnc(S(N)(=O)=O)cc2C)c1	0.0071
Cc1cc(C#N)cc(C(=O)c2cc(Cl)ccc2OCC(=O)Nc2ccc(S(N)(=O)=O)nc2C)c1	0.006
COc1ccc(NC(=O)COc2ccc(Cl)cc2C(=O)c2cc(F)cc(F)c2)cn1	0.072
COCCOCCOc1ccc(NC(=O)COc2ccc(Cl)cc2C(=O)c2cc(F)cc(C(F)(F)F)c2)c(C)c1	0.016
Cc1cc(NC(=O)CCN2CCOCC2)ccc1NC(=O)COc1ccc(Cl)cc1C(=O)c1cc(F)cc(F)c1	0.0089
CCN(CC)CCCNc1ccc(NC(=O)COc2ccc(Cl)cc2C(=O)c2cc(F)cc(F)c2)c(C)c1	0.095
Cc1cc(S(=O)(=O)N(C)C)ccc1NC(=O)COc1ccc(Cl)cc1C(=O)c1cc(F)cc(C(F)(F)F)c1	0.006
Cc1cc(N2CC[S+]([O-])CC2)ccc1NC(=O)COc1ccc(Cl)cc1C(=O)c1ccc(C#N)cc1	0.044
Cc1cc(N2CC[S+]([O-])CC2)ccc1NC(=O)COc1ccc(Cl)cc1C(=O)c1ccccc1	0.1
COc1cc(OC)cc(C(=O)c2cc(Cl)ccc2OCC(=O)Nc2ccc(S(N)(=O)=O)cc2C)c1	0.372
Cc1cc(C#N)cc(C(=O)c2cc(Cl)ccc2OCC(=O)Nc2ccc(S(N)(=O)=O)cc2C)c1	0.000891
Cc1cc(S(N)(=O)=O)ccc1NC(=O)COc1ccc(Cl)cc1C(=O)c1cncc(C#N)c1	0.141
Cc1cc(NCCCn2ccnc2)ccc1NC(=O)COc1ccc(Cl)cc1C(=O)c1cc(F)cc(F)c1	0.158
Cc1cc(NCCCN2CCCC2)ccc1NC(=O)COc1ccc(Cl)cc1C(=O)c1cc(F)cc(F)c1	0.11
Cc1cc(C)cc(C(=O)c2cc(Cl)ccc2OCC(=O)Nc2ccc(S(N)(=O)=O)cc2C)c1	0.0033
O=C(COc1ccc(Cl)cc1C(=O)c1cc(F)cc(F)c1)Nc1ccc(Cl)nc1	0.068
Cc1nc(S(N)(=O)=O)ccc1NC(=O)COc1ccc(Cl)cc1C(=O)c1cc(Cl)cc(C#N)c1	0.003
CNS(=O)(=O)c1ccc(NC(=O)COc2ccc(Cl)cc2C(=O)c2cc(F)cc(C(F)(F)F)c2)c(C)c1	0.002
Cc1cc(S(N)(=O)=O)ccc1NC(=O)COc1ccc(Cl)cc1C(=O)c1cc(Cl)cc(Br)c1	0.0062

Structure (SMILES)	IC50 [µM]
Cc1cc(S(N)(=O)=O)ccc1NC(=O)COc1ccc(Cl)cc1C(=O)c1cccc(C#N)c1	0.0015
Cc1cc(N2CC[S+]([O-])CC2)ccc1NC(=O)COc1ccc(Cl)cc1C(=O)c1ccccc1C#N	0.155
Cc1cc(S(N)(=O)=O)ccc1NC(=O)COc1ccc(Cl)cc1C(=O)c1cc(Br)cc(C(F)(F)F)c1	0.093
Cc1cc(N2CC[S+]([O-])CC2)ccc1NC(=O)COc1ccc(Cl)cc1C(=O)c1cccc(C#N)c1	0.005
Cc1cc(C#N)cc(C(=O)c2cc(Cl)ccc2OCC(=O)Nc2ncc(S(N)(=O)=O)cc2C)c1	0.093
Cc1c(C(C)(C)C)s/c(=N\S(=O)(=O)c2cc(Cl)ccc2N)n1C [2-amino-N-[(2Z)-5-tert-butyl-3,4-dimethyl-2,3-dihydro-1,3-thiazol-2-ylidene]-5-chlorobenzene-1-sulfonamide]	15.8
Cc1c(C(C)C)s/c(=N\S(=O)(=O)c2cc(Br)ccc2C#N)n1C [5-Bromo-2-cyano-N-(5-isopropyl-3,4-dimethyl-1,3-thiazol-2(3H)-ylidene)benzenesulfonamide]	3.98
CC(C)c1s/c(=N\S(=O)(=O)c2cc(Cl)ccc2C#N)n(C)c1Cl [5-Chloro-N-(4-chloro-5-isopropyl-3-methyl-1,3-thiazol-2(3H)-ylidene)-2-cyanobenzenesulfonamide]	3.98
CC(C)c1s/c(=N\S(=O)(=O)c2cc(Br)ccc2O)n(C)c1Cl [5-bromo-N-[(2Z)-4-chloro-3-methyl-5-(propan-2-yl)-2,3-dihydro-1,3-thiazol-2-ylidene]-2-hydroxybenzene-1-sulfonamide]	0.04
Cc1c(C(C)C)s/c(=N\S(=O)(=O)c2cc(Cl)ccc2C#N)n1C [5-chloro-2-cyano-N-[(2Z)-3,4-dimethyl-5-(propan-2-yl)-2,3-dihydro-1,3-thiazol-2-ylidene]benzene-1-sulfonamide]	6.31
CC(C)c1s/c(=N\S(=O)(=O)c2cc(Cl)ccc2O)n(C)c1Cl [5-chloro-N-[(2Z)-4-chloro-3-methyl-5-(propan-2-yl)-2,3-dihydro-1,3-thiazol-2-ylidene]-2-hydroxybenzene-1-sulfonamide]	0.158
Cc1cc(OCCCS(N)(=O)=O)ccc1NC(=O)COc1ccc(Cl)cc1C(=O)c1cc(F)cc(C(F)(F)F)c1 [GW3011]	0.004
Cc1cc(S(N)(=O)=O)ccc1NC(=O)COc1ccc(Cl)cc1C(=O)c1cc(F)cc(C(F)(F)F)c1 [GW4511]	0.002
Cc1cc(S(N)(=O)=O)ccc1NC(=O)COc1ccc(Cl)cc1C(=O)c1cc(Cl)cc(C#N)c1 [GW678248]	0.001
Cc1c(C(C)C)s/c(=N\S(=O)(=O)c2cccc([N+](=O)[O-])c2)n1C [N-(3,4-Dimethyl-5-isopropyl-1,3-thiazol-2(3H)-ylidene)-3-nitrobenzenesulfonamide]	20
C=Cc1s/c(=N\S(=O)(=O)c2cccc([N+](=O)[O-])c2)n(C)c1C [N-(3,4-Dimethyl-5-vinyl-1,3-thiazol-2(3H)-ylidene)-3-nitrobenzenesulfonamide]	6.17
CC(C)c1s/c(=N\S(=O)(=O)c2cc(C#N)ccc2C#N)n(C)c1Cl [N-(4-Chloro-5-isopropyl-3-methyl-1,3-thiazol-2(3H)-ylidene)-2,5-dicyanobenzenesulfonamide]	3.02
Cc1c(C(C)(C)C)s/c(=N\S(=O)(=O)c2cc(Cl)ccc2O)n1C [N-(5-tert-Butyl-3,4-dimethyl-1,3-thiazol-2(3H)-ylidene)-5-chloro-2-hydroxybenzenesulfonamide]	1
CC(C)c1s/c(=N\S(=O)(=O)c2cccc([N+](=O)[O-])c2)n(C)c1C(F)(F)F [N-[(2Z)-3-methyl-5-(propan-2-yl)-4-(trifluoromethyl)-2,3-dihydro-1,3-thiazol-2-ylidene]-3-nitrobenzene-1-sulfonamide]	41.7
CCc1s/c(=N\S(=O)(=O)c2cccc([N+](=O)[O-])c2)n(C)c1C [N-[(2Z)-5-ethyl-3,4-dimethyl-2,3-dihydro-1,3-thiazol-2-ylidene]-3-nitrobenzene-1-sulfonamide]	6.31
Cc1c(C(C)(C)C)s/c(=N\S(=O)(=O)c2ccccc2O)n1C [N-[(2Z)-5-tert-butyl-3,4-dimethyl-2,3-dihydro-1,3-thiazol-2-ylidene]-2-hydroxybenzene-1-sulfonamide]	31.6
Cc1c(C(C)(C)C)s/c(=N\S(=O)(=O)c2cccc(Cl)c2)n1C [N-[(2Z)-5-tert-butyl-3,4-dimethyl-2,3-dihydro-1,3-thiazol-2-ylidene]-3-chlorobenzene-1-sulfonamide]	10
CC(C)c1s/c(=N\S(=O)(=O)c2cccc([N+](=O)[O-])c2)n(C)c1Cl [thiazolidenebenzenesulfonamide deriv. 17k]	6.92
Cc1c(C(C)C)s/c(=N\S(=O)(=O)c2cc(C#N)ccc2C#N)n1C [thiazolidenebenzenesulfonamide deriv.]	3.98

molecular target: Reverse transcriptase protein (Human immunodeficiency virus 1, UniProt Q9WJQ2); assay: Inhibition of HIV1 reverse transcriptase K103N mutant by HeLa-MAGI assay

Structure (SMILES)	IC50 [µM]
Cc1c(C(C)(C)C)s/c(=N\S(=O)(=O)c2cccc([N+](=O)[O-])c2)n1C [3-substituted thiazolidene deriv. 17a]	12.9
